Source: patent US20150045313A1, “Ectoparasiticidal Methods and Formulations” (Eli Lilly and Company, priority 2009, published 2015)
Like-named read-outs stand apart in the source and are kept apart here.

Assays:
Cat Flea = experiment: Flea Contact Assay (FCA)
Protocol: Flea Contact Assay (FCA)/Cat Flea: Test material is formulated in acetone at the desired exposure concentration and doubling dilutions performed to obtain a total of 10 testing levels. Approximately 0.05 ml of formulated material is dispensed into the bottom of a test tube containing a small amount of dog hair. Acetone is allowed to evaporate under a fume hood overnight. Approximately 10 mixed-sex adult cat flea are anesthetized using carbon dioxide and dispensed into each tube. Tubes are sealed using a ventilated plastic cap and incubated at 27° C. and 75-80% relative humidity. […] Nonlinear regression is used to model dose-mortality relationship and obtain relative potency (LD50) data compared to contemporaneous controls (acetone-only or fipronil).

house flies = system: house flies
Protocol: Knockdown and residual efficacy testing and comparison of spinetoram with Elector® for controlling house flies on treated panels.
Test material concentrates of spinetoram (120 g/L suspension concentrate) and spinosad (25 g/L suspension concentrate, Elector) were diluted in distilled water to the desired testing concentrations of either 0.04% (spinetoram only) or 0.08% (both) per label recommended premise spray use rate for controlling house flies with Elector. One square foot panels, obtained from commercial building suppliers, were composed of non-treated plywood, concrete and sheet metal. A second set of both plywood and concrete substrates were primed and painted using exterior grade latex white latex paint. Diluted materials were sprayed onto panels to the point of run-off (approximately 5 seconds per panel). A total of 4 panels were tested per treatment group (n=4). House flies were anesthetized using carbon dioxide and placed inside of plastic containers secured onto panels. There were 4 sub-replicates containers per panel, each container containing 10 mixed-sex adult flies (40 flies per panel). Glucose-saturated dental wicks were secured through a hole in each cup to provide a food and water source for flies. Panels remained upright throughout testing. Fly mortality and moribundity was assessed at post-exposure intervals of 4, 8, 24, 48 and 72 hours immediately following treatment applications and again on a weekly basis for 1 month.

[1] = system: Lone Star Tick (Amblyomma americanum); experiment: Cattle Ectoparasiticide Test, single dose whole-body spray against lone star tick; format: in vivo
Source text: Cattle Ectoparasiticide Test (CET)/Horn Fly (Haematobia irritans) and/or Adult Tick (Amblyomma americanum): Cattle are housed in environmentally controlled rooms, 1 or 2 animals per room that have screened doors and ventilation system to prevent fly escape. Following treatment application, a defined number of horn flies are released into each room (typically at or above economic threshold of 200 flies per animal). After defined periods of time, the numbers of live horn flies remaining on animals are enumerated. If a combination horn fly and tick experiment is conducted, adult lone star ticks are placed into surgical stockinette enclosures that are glued onto the backs of cattle. Cattle are restrained in a modified head gate within environmentally controlled rooms. Horn flies may be enumerated, followed by determination of the numbers of dead ticks inside of containment units. Typically there are 2 containment units per animal and at least 2 animals per treatment group.
A) Single Dose Efficacy Testing and Comparison of Spinetoram with Elector against Lone Star Tick (Amblyomma americanum) Infestations on Cattle. Technical spinetoram was formulated as a 25 g/L suspension concentrate using the same formulatin components as found in Elector. Test material was applied to animals as a whole-body topical spray. Total of two animals per treatment group; each animal harbored ticks inside of 3 containment units (n=3 per animal or n=6 per treatment group). Concentrates (25 g/L) diluted in water; treatment level equivalent to marketed rate for Elector (0.5 g AI per animal).

fleas (C. felis) = experiment: Third evaluation, speed-of-kill of topical spot-on against fleas on cats; format: in vivo; set-up: flea reduction 12 hours after additional infestation: concentration or dose not given beside the values
Protocol: Third evaluation of spinetoram as a topical spot-on for control of cat flea infestations. A study was conducted to evaluate the speed-of-kill efficacy of spinetoram applied topically for the control of fleas (C. felis) on cats. Thirty-six cats were evenly allocated into six groups. One group was a no treatment and no vehicle group. On study days −8 and −1, each cat was infested with approximately 100 newly emerged, unfed adult fleas (C. felis), with an approximate split of 50/50 male to female flea. The topical solution used was spinetoram, on a pure basis, 39.6% w/w (210 mg spinetoram/0.5 ml dose), with benzyl alcohol and butylated hydroxytoluene. The treated groups were dosed once on Study Day 0 by application at the base of the skull at skin level, and flea counts were conducted as follows: […]

[2] = 4 Week Residual Activity, Sheet Metal, 400 ppm
[3] = 4 Week Residual Activity, Sheet Metal, 800 ppm
[4] = 4 Week Residual Activity, Unpainted Concrete, 400 ppm
[5] = 4 Week Residual Activity, Unpainted Concrete, 800 ppm
[6] = 4 Week Residual Activity, Unpainted Wood, 400 ppm
[7] = 4 Week Residual Activity, Unpainted Wood, 800 ppm
[8] = Initial Activity, Sheet Metal, 400 ppm
[9] = Initial Activity, Sheet Metal, 800 ppm
[10] = Initial Activity, Unpainted Concrete, 400 ppm
[11] = Initial Activity, Unpainted Concrete, 800 ppm
[12] = Initial Activity, Unpainted Wood, 400 ppm
[13] = Initial Activity, Unpainted Wood, 800 ppm

Spinetoram
Potency (EC50 ng/cm^2) 24 h (Cat Flea; Cat Flea, 24 h): 1.292 ng/cm^2 | Spinetoram: Spinosad Potency Ratio 24 h (Cat Flea; Cat Flea, 24 h): 2.4 | Potency (EC50 ng/cm^2) 48 h (Cat Flea; Cat Flea, 48 h): 0.6238 ng/cm^2 | Spinetoram: Spinosad Potency Ratio 48 h (Cat Flea; Cat Flea, 48 h): 2.4 | times more potent than spinosad in vitro (Cat Flea; adult cat fleas, time not stated): 2.4 times | % House Fly Mortality at 4 h (house flies; [2]): 0% | % House Fly Mortality at 8 h (house flies; [2]): 40.6% | % House Fly Mortality at 24 h (house flies; [2]): 91.3% | % House Fly Mortality at 48 h (house flies; [2]): 97.3% | % House Fly Mortality at 4 h (house flies; [3]): 0.6% | % House Fly Mortality at 8 h (house flies; [3]): 26.3% | % House Fly Mortality at 24 h (house flies; [3]): 80.6% | % House Fly Mortality at 48 h (house flies; [3]): 96.3% | % House Fly Mortality at 4 h (house flies; [4]): 4.2% | % House Fly Mortality at 8 h (house flies; [4]): 80.0% | % House Fly Mortality at 24 h (house flies; [4]): 100% | % House Fly Mortality at 48 h (house flies; [4]): 100% | % House Fly Mortality at 4 h (house flies; [5]): 31.3% | % House Fly Mortality at 8 h (house flies; [5]): 98.8% | % House Fly Mortality at 24 h (house flies; [5]): 100% | % House Fly Mortality at 48 h (house flies; [5]): 100% | % House Fly Mortality at 4 h (house flies; [6]): 0.6% | % House Fly Mortality at 8 h (house flies; [6]): 0.6% | % House Fly Mortality at 24 h (house flies; [6]): 4.7% | % House Fly Mortality at 48 h (house flies; [6]): 12.1% | % House Fly Mortality at 4 h (house flies; [7]): 0% | % House Fly Mortality at 8 h (house flies; [7]): 0% | % House Fly Mortality at 24 h (house flies; [7]): 22.6% | % House Fly Mortality at 48 h (house flies; [7]): 61.2% | % House Fly Mortality at 4 h (house flies; [8]): 19.7% | % House Fly Mortality at 8 h (house flies; [8]): 91.8% | % House Fly Mortality at 24 h (house flies; [8]): 100% | % House Fly Mortality at 48 h (house flies; [8]): 100% | % House Fly Mortality at 4 h (house flies; [9]): 31.5% | % House Fly Mortality at 8 h (house flies; [9]): 100% | % House Fly Mortality at 24 h (house flies; [9]): 100% | % House Fly Mortality at 48 h (house flies; [9]): 100% | % House Fly Mortality at 4 h (house flies; [10]): 45.4% | % House Fly Mortality at 8 h (house flies; [10]): 98.6% | % House Fly Mortality at 24 h (house flies; [10]): 100% | % House Fly Mortality at 48 h (house flies; [10]): 100% | % House Fly Mortality at 4 h (house flies; [11]): 42.5% | % House Fly Mortality at 8 h (house flies; [11]): 99.2% | % House Fly Mortality at 24 h (house flies; [11]): 100% | % House Fly Mortality at 48 h (house flies; [11]): 100% | % House Fly Mortality at 4 h (house flies; [12]): 1.3% | % House Fly Mortality at 8 h (house flies; [12]): 5.9% | % House Fly Mortality at 24 h (house flies; [12]): 83.7% | % House Fly Mortality at 48 h (house flies; [12]): 98.8% | % House Fly Mortality at 4 h (house flies; [13]): 0.6% | % House Fly Mortality at 8 h (house flies; [13]): 39.4% | % House Fly Mortality at 24 h (house flies; [13]): 100% | % House Fly Mortality at 48 h (house flies; [13]): 100% | activity compared to Elector (house flies; at one half the application rate, sheet metal and unpainted concrete panels): equivalent or superior to Elector | initial activity compared to Elector (house flies; unpainted plywood): equivalent initial activity | residual activity compared to Elector (house flies; unpainted plywood): marginally inferior residual activity | percent tick reduction, 2 hr ([1]; cattle, whole-body spray 0.5 g AI per animal, Day 1, 2 hr): 0% | percent tick reduction, 6 hr ([1]; cattle, whole-body spray 0.5 g AI per animal, Day 1, 6 hr): 0% | percent tick reduction, 10 hr ([1]; cattle, whole-body spray 0.5 g AI per animal, Day 1, 10 hr): 0% | percent tick reduction, 24 hr ([1]; cattle, whole-body spray 0.5 g AI per animal, Day 2, 24 hr): 0% | percent tick reduction, 48 hr ([1]; cattle, whole-body spray 0.5 g AI per animal, Day 3, 48 hr): 8.14% | percent tick reduction, 72 hr ([1]; cattle, whole-body spray 0.5 g AI per animal, Day 4, 72 hr): 8.14% | percent tick reduction, 144 hr ([1]; cattle, whole-body spray 0.5 g AI per animal, Day 7, 144 hr): 46.67% | ET50 ([1]; speed of kill, adult lone star ticks on cattle, 0.5 g AI per animal): 148.2 h | activity (potency and speed of kill) compared to Elector ([1]; topically to cattle at 0.5 g/animal): equivalent activity | flea reduction 1 hour after additional infestation (fleas (C. felis); 28 days after treatment): 80.7% | flea reduction 4 hours after additional infestation (fleas (C. felis); 28 days after treatment): 91.6% | flea reduction 8 hours after additional infestation (fleas (C. felis); 28 days after treatment): 98.5% | flea reduction 12 hours after additional infestation (fleas (C. felis); 28 days after treatment): 100% | flea reduction 24 hours after additional infestation (fleas (C. felis); 28 days after treatment): 100% | reduction in live flea numbers, four hours after treatment (fleas (C. felis); cats, 210 mg/0.5 ml dose, 4 hours): 63.2% | efficacy level, eight hours post-dosing (fleas (C. felis); cats, 210 mg/0.5 ml dose, 8 hours): 94.6% | efficacy, twelve hour time point (fleas (C. felis); cats, 210 mg/0.5 ml dose, 12 hours): 98.6% | efficacy, twenty-four hour time point (fleas (C. felis); cats, 210 mg/0.5 ml dose, 24 hours): 100% | flea reduction 4 hours after additional infestation (fleas (C. felis); seven days after treatment): 100% | flea reduction 8 hours after additional infestation (fleas (C. felis); seven days after treatment): 100% | flea reduction 12 hours after additional infestation (fleas (C. felis); seven days after treatment): 100% | flea reduction 24 hours after additional infestation (fleas (C. felis); seven days after treatment): 100% | fleas killed within one hour of an additional infestation (fleas (C. felis); seven days after treatment, 1 hour): over 90%
